Twelve compounds from patent publication US9376425B2, “Heterocyclic compounds as MDM2 inhibitors for the treatment of cancer” (AMGEN INC., priority 2011, dated 2016) can be followed below.

A word on the IC50: it is the concentration needed to halve the response being measured.

For the assay, the target named is T1, human MDM2 (GST-hMDM2 aa 1-188), interaction with biotinylated-p53 (aa 1-83) (Homo sapiens, UniProt Q00987).
T1 construct: Amino acid residues 1-188 of human MDM2 were expressed; made in house; host or cells: Escherichia coli
T1 sequence (Q00987 1-188): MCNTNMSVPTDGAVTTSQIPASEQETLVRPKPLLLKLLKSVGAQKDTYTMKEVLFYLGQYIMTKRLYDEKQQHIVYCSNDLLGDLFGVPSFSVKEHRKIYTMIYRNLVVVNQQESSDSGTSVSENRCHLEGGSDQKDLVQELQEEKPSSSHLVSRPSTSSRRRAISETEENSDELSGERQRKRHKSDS
Kind of assay: Homogenous Time-Resolved Fluorescence Assay (HTRF1 assay), inhibition of HDM2-p53 interaction. Particulars: 2.5 nM GST-hMDM2, 5 nM biotinylated-p53, 200 mM KF. The assay is classed as binding. A digest of the protocol:
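GST-hMDM2 preincubated 20 min at room temperature with serially diluted compound, then biotinylated p53 (aa 1-83, AviTag-TrxA-6xHis fusion) added for 60 min. SA-XLent/anti-GST cryptate detection equilibrated >4 h; final DMSO 2%. Time-resolved fluorescence read; percent inhibition relative to nutlin-3.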
In the case of `COc1ccc([C@@H]2[C@@H](c3cccc(Cl)c3)OC(CC(=O)O)C(=O)N2CC2CC2)cn1` (single isomer, unassigned) [Example 74], half-maximal inhibition (IC50) was put at 4500 nM.

`O=C(O)C[C@@H]1O[C@H](c2cccc(Cl)c2)[C@@H](c2ccc(Cl)cc2)N(CC2CCCC2)C1=O` [Example 29, 2-((2S,5R,6R)-6-(3-Chlorophenyl)-5-(4-chlorophenyl)-4-(cyclopentylmethyl)-3-oxomorpholin-2-yl)acetic acid] registered an IC50 of 300 nM.

With `C=CCN1C(=O)[C@@H](CC(=O)O)O[C@H](c2cccc(Cl)c2)[C@H]1c1ccc(Cl)cc1` [Example 46, 2-((2R,5R,6R)-4-Allyl-6-(3-chlorophenyl)-5-(4-chlorophenyl)-3-oxomorpholin-2-yl)acetic acid], half-maximal inhibition (IC50) required 800 nM. Against the preceding compound, the IC50 is about 2.7-fold higher.

In turn, `O=C(O)CC1O[C@H](c2cccc(Cl)c2)[C@@H](c2ccc(Cl)c(F)c2)N(CC2CC2)C1=O` (single isomer, unassigned) [Example 78] returned an IC50 of 800 nM.

In turn, `C[C@H](C1CCC1)N1C(=O)[C@@H](CC(=O)O)O[C@H](c2cccc(Cl)c2)[C@H]1c1ccc(Cl)cc1` [Example 20, 2-((2R,5R,6R)-6-(3-Chlorophenyl)-5-(4-chlorophenyl)-4-((R)-1-cyclobutylethyl)-3-oxomorpholin-2-yl)acetic acid] returned an IC50 of 300 nM.

On to `O=C(O)C[C@H]1O[C@H](c2cccc(Cl)c2)[C@@H](c2ccc(Cl)cc2)N(C2CCCC2)C1=O` [Example 15, 2-((2R,5R,6R)-6-(3-chlorophenyl)-5-(4-chlorophenyl)-4-cyclopentyl-3-oxomorpholin-2-yl)acetic acid], for which the half-maximal inhibitory concentration (IC50) amounted to 300 nM.

As for `O=C(O)CC1O[C@H](c2cccc(OC(F)(F)F)c2)[C@@H](c2ccc(Cl)cc2)N(CC2CC2)C1=O` (single isomer, unassigned) [Example 95], the IC50 is 33500 nM.

Turning to `O=C(O)C[C@@H]1O[C@H](c2cccc(Cl)c2)[C@@H](c2nc3ccccc3s2)N(CC2CC2)C1=O` (racemic) [Example 3, 2-((2S,5S,6R)-5-(Benzo[d]thiazol-2-yl)-6-(3-chlorophenyl)-4-(cyclopropylmethyl)-3-oxomorpholin-2-yl)acetic acid and 2-((2R,5R,6S)-5-(Benzo[d]thiazol-2-yl)-6-(3-chlorophenyl)-4-(cyclopropylmethyl)-3-oxomorpholin-2-yl)acetic acid], half-maximal inhibition (IC50) was put at 23500 nM.

Compound `O=C1[C@@H](Cc2nnn[nH]2)O[C@H](c2cccc(Cl)c2)[C@@H](c2ccc(Cl)cc2)N1CC1CC1.O=C1[C@H](Cc2nnn[nH]2)O[C@H](c2cccc(Cl)c2)[C@@H](c2ccc(Cl)cc2)N1CC1CC1` (mixture of isomers) [Example 50, (2S,5R,6R)-6-(3-Chlorophenyl)-5-(4-chlorophenyl)-4-(cyclopropylmethyl)-2-((tetrazol-5-yl)methyl)morpholin-3-one and (2R,5R,6R)-6-(3-Chlorophenyl)-5-(4-chlorophenyl)-4-(cyclopropylmethyl)-2-((tetrazol-5-yl)methyl)morpholin-3-one] showed an IC50 of 700 nM.

For the compound `O=C(O)CC1O[C@H](c2cncc(Cl)c2)[C@@H](c2ccc(Cl)cc2)N(CC2CC2)C1=O` (single isomer, unassigned) [Example 88], the IC50 was 2100 nM.

In turn, `O=C(O)C[C@H]1O[C@H](c2cccc(Cl)c2)[C@@H](c2nc3ccccc3s2)N(CC2CC2)C1=O` (racemic) [Example 4, 2-((2R,5S,6R)-5-(Benzo[d]thiazol-2-yl)-6-(3-chlorophenyl)-4-(cyclopropylmethyl)-3-oxomorpholin-2-yl)acetic acid and 2-((2S,5R,6S)-5-(Benzo[d]thiazol-2-yl)-6-(3-chlorophenyl)-4-(cyclopropylmethyl)-3-oxomorpholin-2-yl)acetic acid] returned a half-maximal inhibitory concentration (IC50) of 25000 nM.

`O=C(O)C[C@@H]1O[C@H](c2cccc(Cl)c2)[C@@H](c2ccc(Cl)cc2)NC1=O` [Example 34, 2-((2S,5R,6R)-6-(3-Chlorophenyl)-5-(4-chlorophenyl)-3-oxomorpholin-2-yl)acetic acid] gave an IC50 of 25000 nM. This lies in the double-digit micromolar range.
